The subject of assay [1] is T cells from the spleen of C3H/HeJ mice. Nature of the assay: Induction of IL-2 production in ConA-activated spleen T cells; supernatants tested for growth of IL-2-dependent CTLL-2 cells. The format is cell-based. The settings on record: supernatants of splenocytes incubated 48 hours with ConA and substance, dilution 1/10. How it is done: For the purpose of establishing whether the activity of costimulation of the murine thymocytes on the part of the synthetic peptide is due, as in the case of human IL-1, to the induction of the production of IL-2, the following test was carried out.
T cells from the spleen of C3H/HeJ mice, separated on nylon wool as reported by Julius, M. H. et al., Eur. J. Immunol. 3, 645 (1973), are incubated in duplicate for 48 hours at 37° C. in 1 ml of RPMI 1640 medium (GIBCO), supplemented by N-2-hydroxyethylpiperazine N'-2-ethanesulphonic acid (HEPES), L-glutamine, gentamycin, 10% bovine foetal serum and 2-mercaptoethanol (2.5×10^-5 M), in the presence of graduated concentrations (840-420-210 μg/ml) of the synthetic peptide 163-171 and of purified human IL-1B as standard, with the addition of concanavalin A (ConA) as costimulant.
At the end of the period of incubation, the supernatant is separated from the culture and a determination is made of its capacity to promote the growth of CTLL-2 cells dependent upon IL-2 according to the method reported by Gillis S. M. et al. (J. Immunol. 120, 2027 (1978)).
The mitogenic activity of IL-2 on CTLL-2 cells is measured, either by determining the number of cells after 24 hours of culturing or by means of the assessment of the incorporation of tritiated thymidine in the cells. […]

A further assay relates to CTLL-2 cells. Nature of the assay: Substances tested directly on IL-2-dependent CTLL cells (no splenocyte supernatant; upper part of Table 2). Type of assay: cell-based. The conditions noted are these: dilution 1/10.

With “Human IL-1β: purified human IL-1B standard (Genzyme Boston Mass.)”, in assay [1], the “IL-2 (mU/ml)” value is 38 mU/ml and the “Stimulation index + SE of CTLL cells” value is reported as 15.27 ± 0.88. Also, in the assay with CTLL-2 cells, the “IL-2 (mU/ml)” value is 1 mU/ml and the “Stimulation index + SE of CTLL cells” value is given as 0.93 ± 0.02.

The values above are taken from patent publication US4774320A, “Synthetic peptide with human interleukin 1 activity” (Sclavo S.p.A., priority 1986, dated 1988).
